{"source": "ChEMBL document CHEMBL1150846", "about": "“Thorectandrols A and B, new cytotoxic sesterterpenes from the marine sponge Thorectandra species” (J Nat Prod, 2001)", "key": {"Malme-3M": {"tested_on": "Malme-3M", "test": "Cytotoxicity against human MALME-3M cells after 2 days by XTT assay", "assay_type": "functional, cell-based", "conditions": "48 h"}, "MCF7": {"tested_on": "MCF7", "test": "Cytotoxicity against human MCF7 cells after 2 days by XTT assay", "assay_type": "functional, cell-based", "conditions": "MCF7, 48 h"}}, "data": [{"smiles": "C=C1CCC[C@@H]2[C@@](C)(CC/C(C)=C/C[C@@H](O)C3=CC(=O)OC3O)[C@@H](C)CC[C@@]12C", "note": "(some centres not stated) [PALAUOLOL]", "values": [{"measurement": "IC50", "setting": "Malme-3M", "value": 0.46, "unit": "µg/mL"}, {"measurement": "IC50", "setting": "MCF7", "value": 14.2, "unit": "µg/mL"}]}]}
